Test results published in US20130261134A1, “MESYLATE SALT FORMS OF A POTENT HCV INHIBITOR” (Boehringer Ingelheim International GmbH, priority 2012, published 2013).

Experiment: Solubility in the physiological pH range
Assay type: physicochemical
Conditions: aqueous buffer; physiological pH range of 2-6.8

- solubility: < 0.2 µg/mL
Structure (SMILES): Cn1c(C2(NC(=O)c3ccc4c(C5CCCC5)c(-c5ncc(Br)cn5)n(C)c4c3)CCC2)nc2ccc(/C=C/C(=O)O)cc21 [Compound (1), (E)-3-[2-(1-{[2-(5-Bromo-pyrimidin-2-yl)-3-cyclopentyl-1-methyl-1H-indole-6-carbonyl]-amino}-cyclobutyl)-3-methyl-3H-benzimidazol-5-yl]-acrylic acid]
